Assay results from patent US20240115557A1, “INHIBITORS OF RNA-GUIDED NUCLEASES AND USES THEREOF” (The Brigham and Women's Hospital, Inc., priority 2022, published 2024).

Key:
SpCas9 = SpCas9 (Streptococcus pyogenes serotype M1, UniProt Q99ZW2); assay: Strand displacement assay (SDA) / cumulative activity assay (CAA), SpCas9 primary screen; type: biochemical; details: Primary Screen (150 min); for Average Normalized Z score: average of replicates; for Normalized Z score 1: replicate 1; for Normalized Z score 2: replicate 2
Sequence of SpCas9 (Q99ZW2 whole entry): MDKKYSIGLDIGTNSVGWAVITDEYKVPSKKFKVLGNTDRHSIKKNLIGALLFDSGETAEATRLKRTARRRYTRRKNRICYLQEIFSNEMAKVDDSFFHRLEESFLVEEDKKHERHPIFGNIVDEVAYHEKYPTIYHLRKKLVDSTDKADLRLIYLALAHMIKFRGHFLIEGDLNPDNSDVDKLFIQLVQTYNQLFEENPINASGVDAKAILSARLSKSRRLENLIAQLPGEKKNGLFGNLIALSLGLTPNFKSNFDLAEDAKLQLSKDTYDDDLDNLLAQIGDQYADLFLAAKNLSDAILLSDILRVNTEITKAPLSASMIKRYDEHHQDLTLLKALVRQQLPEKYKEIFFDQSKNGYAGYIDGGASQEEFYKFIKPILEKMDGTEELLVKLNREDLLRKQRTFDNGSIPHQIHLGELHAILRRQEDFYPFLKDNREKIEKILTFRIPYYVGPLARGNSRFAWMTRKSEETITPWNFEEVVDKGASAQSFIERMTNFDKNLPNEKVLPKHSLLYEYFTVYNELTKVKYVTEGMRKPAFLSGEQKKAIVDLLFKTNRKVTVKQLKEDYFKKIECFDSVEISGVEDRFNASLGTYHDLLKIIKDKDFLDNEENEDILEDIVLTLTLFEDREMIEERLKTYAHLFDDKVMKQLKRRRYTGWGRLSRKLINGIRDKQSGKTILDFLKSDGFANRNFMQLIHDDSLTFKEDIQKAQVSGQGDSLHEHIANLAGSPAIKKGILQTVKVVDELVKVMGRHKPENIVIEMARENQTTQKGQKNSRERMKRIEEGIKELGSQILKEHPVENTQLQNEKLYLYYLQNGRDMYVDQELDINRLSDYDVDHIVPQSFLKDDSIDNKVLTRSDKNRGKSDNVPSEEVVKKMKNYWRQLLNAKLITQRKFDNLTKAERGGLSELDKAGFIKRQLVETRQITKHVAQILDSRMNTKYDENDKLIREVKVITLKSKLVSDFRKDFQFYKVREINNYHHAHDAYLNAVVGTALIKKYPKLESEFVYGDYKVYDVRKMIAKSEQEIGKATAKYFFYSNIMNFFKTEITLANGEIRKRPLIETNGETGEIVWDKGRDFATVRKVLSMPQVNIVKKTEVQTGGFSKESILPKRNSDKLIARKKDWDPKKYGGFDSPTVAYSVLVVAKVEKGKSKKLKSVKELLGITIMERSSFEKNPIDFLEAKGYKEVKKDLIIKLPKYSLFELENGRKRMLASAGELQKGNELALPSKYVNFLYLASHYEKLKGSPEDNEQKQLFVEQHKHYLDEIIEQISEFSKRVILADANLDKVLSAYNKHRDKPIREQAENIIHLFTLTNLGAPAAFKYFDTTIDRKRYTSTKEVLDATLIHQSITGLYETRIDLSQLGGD
Method: Screening of inhibitors was via a high throughput pipeline, as depicted in FIG. 29. The first screening is via a strand displacement assay (SDA) for detecting nuclease activity (FIG. 27A, 28A). The Cpf1/Cas12 protein/DNA complex has a different structure from Cas9 and requires optimization of the potential fluorophore attachment sites (Yamano, T et al., Cell, 2016). (FIG. 28A). Next screened compounds are evaluated in an eGFP cell assay, and for eGFP dose. Those compounds are further narrowed via a HiBiT assay and finally evaluated in the surveyor assay. SAR evaluations are performed to arrive at lead compounds for further evaluations and variations. General methodology for the assays is as described in at [0253]-[0301] of U.S. Patent Application 62/831,143 filed Apr. 8, 2019, incorporated herein by reference.
The 3′ end of the displacing single-stranded DNA was labeled with a quencher. Following nuclease cleavage of the substrate, the 3′-labeled quenching DNA strand (present in excess) could outcompete the weakly held 3′ strand to anneal to the 5′ strand. The resulting FRET fluorescence quenching provides an optical readout for nuclease activity (FIG. 62A).
Typically, SpCas9: gRNA (1:1.2 ratio) RNP was pre-formed at 1 μM in Cas9 assay buffer (20 mM Tris-HCl, pH=7.5, 100 mM KCl, 5 mM MgCl2) for 5 min at 4° C. before diluting to 10 nM in Cas9 assay buffer (2× final concentration). 25 μL of the Cas9 2× stock was manually dispensed to a black 384-well plate (Corning 3575) using electronic pipette. […] Following this, pre-annealed Alexa-Fluor 647 labeled substrate and quencher were also diluted to 1 nM and 5 nM in Cas9 assay buffer, respectively (2× stock solution). Next, 25 μL of the substrate/quencher solution was added manually to each well of the Cas9-containing 384-well plates using an electronic pipette and was incubated at 37° C. for 2.5 h. Fluorescent signals were read with the microplate reader set to read Alexa-Fluor 647 fluorescence. Assay was performed similarly with SaCas9 and FnCas12a using the respective enzyme, gRNA, substrate, and quencher oligos. […]

SaCas9 = biological target: T1, SaCas9 (Staphylococcus aureus, UniProt J7RUA5); assay: Strand displacement assay, SaCas9 primary screen; type: biochemical; details: for Auto Zscore Rep 1 / Auto Zscore Rep 2 / Normalized Zscore Rep 1 / Normalized Zscore Rep 2: SaCas9 primary screen; for Auto Zscore Rep 1 / Normalized Zscore Rep 1: replicate 1; for Auto Zscore Rep 2 / Normalized Zscore Rep 2: replicate 2; for Normalized Zscore Rep 1 / Normalized Zscore Rep 2: weaker potential hits; for 3 sigma Hit: flag 1 = hit at 3 sigma; for 5 sigma Hit: flag 1 = hit at 5 sigma
T1 sequence (J7RUA5 1-1053): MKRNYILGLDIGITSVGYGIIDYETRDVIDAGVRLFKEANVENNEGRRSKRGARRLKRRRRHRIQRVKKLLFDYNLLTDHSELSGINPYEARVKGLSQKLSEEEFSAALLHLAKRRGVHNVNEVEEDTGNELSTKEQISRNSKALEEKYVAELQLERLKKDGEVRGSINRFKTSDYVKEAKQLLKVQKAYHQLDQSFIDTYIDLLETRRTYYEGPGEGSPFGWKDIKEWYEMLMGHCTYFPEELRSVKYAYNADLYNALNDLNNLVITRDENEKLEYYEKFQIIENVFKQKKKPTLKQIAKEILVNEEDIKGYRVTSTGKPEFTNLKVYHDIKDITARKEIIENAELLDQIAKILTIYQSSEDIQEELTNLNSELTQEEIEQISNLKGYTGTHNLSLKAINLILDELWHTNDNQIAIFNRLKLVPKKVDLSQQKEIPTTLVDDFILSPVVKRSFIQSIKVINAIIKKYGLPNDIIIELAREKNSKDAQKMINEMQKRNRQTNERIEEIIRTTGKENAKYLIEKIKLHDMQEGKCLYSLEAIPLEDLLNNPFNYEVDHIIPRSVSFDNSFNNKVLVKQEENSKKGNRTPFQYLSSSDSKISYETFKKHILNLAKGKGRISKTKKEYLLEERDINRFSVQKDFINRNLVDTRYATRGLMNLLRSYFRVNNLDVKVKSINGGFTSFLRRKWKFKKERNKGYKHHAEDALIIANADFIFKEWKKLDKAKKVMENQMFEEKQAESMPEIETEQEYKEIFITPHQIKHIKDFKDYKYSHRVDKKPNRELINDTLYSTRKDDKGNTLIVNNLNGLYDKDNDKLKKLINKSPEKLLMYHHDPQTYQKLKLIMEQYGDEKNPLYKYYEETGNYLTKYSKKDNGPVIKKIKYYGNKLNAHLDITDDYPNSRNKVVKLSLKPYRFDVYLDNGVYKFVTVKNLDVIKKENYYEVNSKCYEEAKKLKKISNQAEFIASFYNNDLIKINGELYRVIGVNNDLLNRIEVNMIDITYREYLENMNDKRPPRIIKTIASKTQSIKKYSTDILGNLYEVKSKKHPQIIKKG
Outline: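 Cas9 RNP (1:1.2 protein:gRNA) pre-formed in 20 mM Tris-HCl pH 7.5, 100 mM KCl, 5 mM MgCl2, used at 10 nM (2× stock) with Alexa-Fluor 647 substrate/quencher at 1 nM/5 nM (2× stock). Reaction ran 2.5 h at 37°C; strand displacement read as fluorescence. Hits called by Z-score: 3–5σ weak, >5σ strong.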

SMILES	Auto Zscore Rep 1 (SaCas9)	Auto Zscore Rep 2 (SaCas9)	Normalized Zscore Rep 1 (SaCas9)	Normalized Zscore Rep 2 (SaCas9)	3 sigma Hit (SaCas9)	5 sigma Hit (SaCas9)	avg z score primary (SpCas9)	Average Normalized Z score (SpCas9)	Normalized Z score 1 (SpCas9)	Normalized Z score 2 (SpCas9)
O=C(O)c1cccc(NCC2SC(=S)NC2=O)c1 (stereo not shown) [Compound T0514-3358]							4.79	0.30	0.32	0.27
Oc1c(C(c2cccs2)N2CCCCC2)ccc2cccnc12 (stereo not shown) [Compound T0515-1927]							10.34	0.68	0.70	0.67
Cc1ccc(C(=O)n2ncn(C)c2=S)cc1 [Compound T0510-3476]							28.56	0.41	0.39	0.42
O=C(O)C(S)=C/C=C\c1ccccc1 [Compound T5441826]							4.20	0.05	0.03	0.06
CCCN(CCC)C1=CC(=O)C(C)=C(C)C1=O [Compound T0502-3042]							4.92	0.31	0.32	0.30
CCOC(=O)C1CCCN(Cn2nnn(-c3ccc(OC)cc3)c2=S)C1 (stereo not shown) [Compound T0513-0218]							3.45	0.04	0.04	0.03
O=C(O)c1cc(NS(=O)(=O)c2ccc3c(c2)CCCC3)cnc1N1CCCC1 [Cpd F293-0441]	1.399	1.863	0.3305	0.3044	1	1				
CCS(=O)(=O)Nc1cnc(N(CC(C)C)CC(C)C)c(C(=O)O)c1 [Cpd F293-0563]	1.978	2.223	0.2792	0.3121	1	1				
CN(C)c1ncc(NS(=O)(=O)c2cc(F)ccc2F)cc1C(=O)O [Cpd F293-0814]	2.553	2.947	0.2358	0.2376	1	1				
CCS(=O)(=O)Nc1cnc(N(C)CCCc2c(C)nn(C)c2C)c(C(=O)O)c1 [Cpd F293-0908]	−0.5672	0.4148	0.2527	0.2772	1	1				
CCCCN(CC)c1ncc(NS(C)(=O)=O)cc1C(=O)O [Cpd F293-0529]	0.1547	−0.2374	0.1815	0.1895	1					
C=C1C(C(=O)NCc2ccco2)C1C(=O)NCc1ccco1 (stereo not shown) [Cpd T0501-2919]	0.7411	0.4717	0.507	0.5892	1	1				
Cc1n[nH]c2c1C(c1ccc(O)c(O)c1)CC(=O)N2 (stereo not shown) [Cpd D361-0120]	−0.203	−0.05734	0.3533	0.2821	1	1				

Further lines, with some results ahead:

Auto Zscore Rep 1 (SaCas9)	Auto Zscore Rep 2 (SaCas9)	Normalized Zscore Rep 1 (SaCas9)	Normalized Zscore Rep 2 (SaCas9)	3 sigma Hit (SaCas9)	5 sigma Hit (SaCas9)	SMILES	avg z score primary (SpCas9)	Average Normalized Z score (SpCas9)	Normalized Z score 1 (SpCas9)	Normalized Z score 2 (SpCas9)
0.2858	−0.8337	0.2526	0.3021	1	1	Cc1noc2c1C(c1ccc(O)c(O)c1)C1=C(CC(c3ccccc3)CC1=O)N2 (stereo not shown) [Cpd D588-0186]				
−0.413	−1.287	0.4389	0.3581	1	1	CCOc1ccc(NC(=O)c2oc3cc(C)ccc3c2C)c2cccnc12 [Cpd D656-0040]				
0.8616	−0.4814	0.1698	0.2567	1		COc1ccc2cc3c(N)nn(C(=O)c4ccc(F)cc4)c3nc2c1 [Cpd C594-0010]				
2.51	1.919	0.2077	0.4936	1		Cc1cccc(Nc2nc(C(N)=O)c(NC(=O)c3ccc(F)cc3)s2)c1C [Cpd D686-0236]				
1.154	−0.6566	0.2766	0.2635	1	1	Cc1occc1-c1nnc2sc(COc3ccc(Br)cc3)nn12 [Cpd D727-0114]				
−0.3775	1.249	0.1921	0.2295	1	1	c1ccc(-c2nnc3sc(-c4ccncc4)nn23)nc1 [Cpd D727-0542]				
−1.4647	−0.1946	0.1942	0.18	1	1	O=C1CC(c2ccc(O)c(O)c2)c2c(nc(SCc3ccccc3)[nH]c2=O)N1 (stereo not shown) [Cpd D271-0007]				
1.322	0.6629	0.2335	0.4628	1		O=c1ccc2ccc(OCc3nnn[nH]3)cc2o1 [Cpd D715-0997]				
−0.6224	1.036	0.1633	0.1771	1		COCCc1nnc2n1N=C(c1ccc(Cl)cc1)CS2 [Cpd D727-0342]				
−0.4729	−0.3637	0.198	0.181	1	1	Cc1ccc(CSc2nc3c(c(=O)[nH]2)C(c2ccc(O)c(O)c2)CC(=O)N3)cc1 (stereo not shown) [Cpd D271-0008]				
−0.1513	−0.2297	0.2865	0.3127	1	1	Cc1ccc(OCc2nn3c(-c4ccoc4C)nnc3s2)cc1 [Cpd D727-0112]				
